The results in this text go back to patent publication US9777015B2, “Useful thiophene derivatives in the treatment of diabetes” (METABRAIN RESEARCH, priority 2012, dated 2017).

Structures are written as SMILES.

The test system of the experiment is hepatocytes isolated from Wistar rat liver. The experiment in a line: Test of inhibition of hepatic production of glucose (isolated hepatocytes, 3 h or 20 h incubation). It is filed as cell-based. The conditions noted are these: 3 h incubation; for activity at 50 µM / activity at 100 µM: Rattus norvegicus, Hepatocyte, 3 h, hepatic glucose production, rat hepatocytes; for activity at 50 µM: compound at 50 μM, read-out: HGP % of ctrl @ 50 μM; for activity at 100 µM: compound at 100 μM, read-out: HGP % of ctrl @ 100 μM; for inhibition of hepatic production of glucose: with two doses. The procedure:
The hepatocytes are isolated from Wistar rat liver having fasted for 24 h after perfusion of collagenase in the portal vein. The freshly isolated hepatocytes are sown in 6-well plates coated with collagen and containing an adhesion medium (Williams Medium). After adhesion, the medium is replaced with RPMI 1640 medium without any glucose, containing hydrocortisone (7.10^−5M) for a duration from 16 to 18 h. The next day, the glucose hepatic production test is conducted in a Krebs medium for 3 h. The basal conditions are cells incubated with only Krebs, the stimulated conditions are the cells placed in Krebs+lactate+pyruvate, the produced conditions are the cells exposed to chemical compounds in a Krebs/lactate/pyruvate medium. In the case when the compounds are dissolved in DMSO, all the conditions of the tests are met in the presence of a final concentration of 0.1% DMSO. The positive control of the test is the mercaptopicolinate known for its inhibitory action on hepatic production of glucose via the phosphoenolpyruvate carboxykinase. For short term treatments, the compounds are incubated for 3 h. For long term treatments, the compounds are incubated for 20 h at the moment when the hepatocytes are cultivated in RPMI and then added during the hepatic production test for 3 h. At the end of the 3 hours of incubation, the supernatant is recovered for measurement of glucose with a colorimetric method using glucose oxidase. The cells are lysed with a 0.1% NaOH aqueous solution in order to measure the amount of protein with the Lowry method. The results are expressed in mmols of glucose per mg of protein.

On to `COc1cccc(NC(=O)c2cc(CC(=O)OC(C)C)c(-c3ccc(Cl)cc3)s2)c1` [compound 115, isopropyl 2-(2-(4-chlorophenyl)-5-((3-methoxyphenyl)-carbamoyl)thiophen-3-yl)acetate], for which the activity at 50 µM stood at 66% and the activity at 100 µM was determined as 75%.

In the case of `CON=C(c1ccc(OC)cc1)c1cc(CC(=O)O)c(-c2ccc(Cl)cc2)s1` [compound 110, 2-(2-(4-chlorophenyl)-5-((methoxyimino)(4-methoxyphenyl)methyl)thiophen-3-yl)acetic acid], the activity at 50 µM turned out to be 72% and the activity at 100 µM was found to be 33%.

On to `O=C(c1ccco1)c1cc(Cc2noc(=O)[nH]2)c(-c2ccc(Cl)cc2)s1` [compound 153, 3-((2-(4-chlorophenyl)-5-(furan-2-carbonyl)thiophen-3-yl)-methyl)-1,2,4-oxadiazol-5(2H)-one], for which the activity at 50 µM was determined as 95% and the activity at 100 µM worked out at 38%.

Regarding `O=C(O)Cc1cc(C(=O)Cc2ccc(F)cc2)sc1-c1ccccc1` [compound 54, 2-(5-(2-(4-fluorophenyl)acetyl)-2-phenylthiophen-3-yl)acetic acid], the activity at 50 µM worked out at 85% and the activity at 100 µM was found to be 74%.

Consider `O=C(O)Cc1cc(C(=O)c2ccccc2)sc1-c1ccc(Cl)cc1` [compound 154, 2-[5-benzoyl-2-(4-chlorophenyl)-3-thienyl]acetic acid], for which the activity at 50 µM came out at 81% and the activity at 100 µM was 63%.

Take `O=C(O)Cc1cc(C(=O)c2cccc(Cl)c2)sc1-c1ccccc1` [compound 49, 2-(5-(3-chlorobenzoyl)-2-phenyl-thiophen-3-yl)acetic acid]: the “inhibition of hepatic production of glucose” value (from here on “inhibition”) is recorded as “strongest inhibitions”, the activity at 50 µM stood at 57% and the activity at 100 µM is 38%.

Turning to `O=C(O)Cc1cc(C(=O)c2ccco2)sc1-c1ccccc1` [compound 48, 2-(5-(furan-2-carbonyl)-2-phenyl-thiophen-3-yl)acetic acid], the activity at 50 µM turned out to be 91% and the activity at 100 µM was 73%.

For the compound `O=C(O)Cc1cc(C(=O)c2cccc(Cl)c2)sc1-c1ccc(Cl)cc1` [compound 58, 2-(5-(3-chlorobenzoyl)-2-(4-chlorophenyl)thiophen-3-yl)acetic acid], the “inhibition” value is on record as “strongest inhibitions”, the activity at 50 µM came to 51% and the activity at 100 µM came out at 25%.

On to `COC(=O)Cc1cc(C(=O)c2cccc(Cl)c2)sc1-c1ccccc1` [compound 2, methyl 2-(5-(3-chlorobenzoyl)-2-phenylthiophen-3-yl)acetate], for which the activity at 50 µM turned out to be 83% and the activity at 100 µM came to 62%.

As to `COc1ccc(C(=O)c2cc(CC(N)=O)c(-c3ccc(Cl)cc3)s2)cc1` [compound 86, 2-(2-(4-chlorophenyl)-5-(4-methoxybenzoyl)thiophen-3-yl)acetamide], the activity at 50 µM was determined as 77% and the activity at 100 µM worked out at 72%.

With `O=C(O)Cc1cc(C(=O)C2CCCCC2)sc1-c1ccc(Cl)cc1` [compound 61, 2-(2-(4-chlorophenyl)-5-(cyclohexanecarbonyl)thiophen-3-yl)acetic acid], the activity at 50 µM stood at 78% and the activity at 100 µM was 66%.

In the case of `CCONC(=O)Cc1cc(C(=O)c2ccco2)sc1-c1ccc(Cl)cc1` [compound 98, 2-(2-(4-chlorophenyl)-5-(furan-2-carbonyl)thiophen-3-yl)-N-ethoxyacetamide], the activity at 50 µM was 88% and the activity at 100 µM was 74%.

As for `O=C(O)Cc1cc(C(=O)CCc2ccccc2)sc1-c1ccc(Cl)cc1` [compound 63, 2-(2-(4-chlorophenyl)-5-(3-phenylpropanoyl)thiophen-3-yl) acetic acid], the “inhibition” value is reported as “strongest inhibitions”, the activity at 50 µM was 56% and the activity at 100 µM is 28%.
